Data published in publication PMC12203311, “Design, synthesis, in silico and in vitro evaluation of pyrrole–indole hybrids as dual tubulin and aromatase inhibitors with potent anticancer activities” (RSC Advances, 2025).

Tests used:
SN12C = test: NCI60 five-dose screen; assay type: cell-based; conditions: Homo sapiens, renal cancer; for CC50: read-out: LC50 (the source's name)
OVCAR-5 = test: NCI60 five-dose screen; assay type: cell-based; conditions: Homo sapiens, OVCAR-5, ovarian cancer; for CC50: read-out: LC50 (the source's name)
UACC-257 = test: NCI60 five-dose screen; assay type: cell-based; conditions: Homo sapiens, UACC-257, melanoma; for CC50: read-out: LC50 (the source's name)
OVCAR-8 = test: NCI60 five-dose screen; assay type: cell-based; conditions: Homo sapiens, OVCAR-8, ovarian cancer; for CC50: read-out: LC50 (the source's name)
SNB-19 = test: NCI60 five-dose screen; assay type: cell-based; conditions: Homo sapiens, SNB-19, CNS cancer; for CC50: read-out: LC50 (the source's name)
MDA-MB-231/ATCC = test: NCI60 five-dose screen; assay type: cell-based; conditions: Homo sapiens, breast cancer; for CC50: read-out: LC50 (the source's name)
Human CYP19 (aromatase) = molecular target: T1, Human CYP19 (aromatase) (Homo sapiens, UniProt P11511); test: Aromatase inhibition assay (DBF fluorometric substrate); assay type: biochemical; conditions: active defined as IC50 < 12.5 µM
T1 construct: purchased GENTEST, Woburn, MA 456260; host or cells: baculovirus/insect cells
T1 sequence (P11511 1-503): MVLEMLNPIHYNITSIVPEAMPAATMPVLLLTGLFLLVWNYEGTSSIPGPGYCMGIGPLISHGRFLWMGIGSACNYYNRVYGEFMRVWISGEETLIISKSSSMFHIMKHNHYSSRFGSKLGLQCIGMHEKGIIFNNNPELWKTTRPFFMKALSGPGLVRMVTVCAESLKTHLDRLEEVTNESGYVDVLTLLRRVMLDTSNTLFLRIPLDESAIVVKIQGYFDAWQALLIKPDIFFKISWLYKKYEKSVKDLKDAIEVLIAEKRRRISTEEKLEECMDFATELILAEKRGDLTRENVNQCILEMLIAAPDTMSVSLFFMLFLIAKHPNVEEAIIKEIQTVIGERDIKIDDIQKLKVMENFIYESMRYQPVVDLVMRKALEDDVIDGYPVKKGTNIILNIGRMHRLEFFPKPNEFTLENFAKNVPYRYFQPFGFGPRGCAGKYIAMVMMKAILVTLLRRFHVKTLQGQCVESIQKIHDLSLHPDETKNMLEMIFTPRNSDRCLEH
Outline: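 Insect-cell-expressed human CYP19 Supersomes with oxidoreductase turned over DBF for 30 min at 37 °C after a 10 min 37 °C pre-incubation with cofactor. NaOH quench; product measured by fluorescence, excitation 490 nm, emission 530 nm.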

SF-295 = test: NCI60 five-dose screen; assay type: cell-based; conditions: Homo sapiens, SF-295, CNS cancer; for CC50: read-out: LC50 (the source's name)
MOLT-4 = test: NCI60 five-dose screen; assay type: cell-based; conditions: Homo sapiens, MOLT-4, leukemia; for CC50: read-out: LC50 (the source's name)
SK-MEL-28 = test: NCI60 five-dose screen; assay type: cell-based; conditions: Homo sapiens, SK-MEL-28, melanoma; for CC50: read-out: LC50 (the source's name)
SW-620 = test: NCI60 five-dose screen; assay type: cell-based; conditions: Homo sapiens, SW-620, colon cancer; for CC50: read-out: LC50 (the source's name)
UO-31 = test: NCI60 five-dose screen; assay type: cell-based; conditions: Homo sapiens, UO-31, renal cancer; for CC50: read-out: LC50 (the source's name)
TK-10 = test: NCI60 five-dose screen; assay type: cell-based; conditions: Homo sapiens, TK-10, renal cancer; for CC50: read-out: LC50 (the source's name)
HCC-2998 = test: NCI60 five-dose screen; assay type: cell-based; conditions: Homo sapiens, HCC-2998, colon cancer; for CC50: read-out: LC50 (the source's name)
NCI-H522 = test: NCI60 five-dose screen; assay type: cell-based; conditions: Homo sapiens, NCI-H522, NSC lung cancer; for CC50: read-out: LC50 (the source's name)
KM12 = test: NCI60 five-dose screen; assay type: cell-based; conditions: Homo sapiens, KM12, colon cancer; for CC50: read-out: LC50 (the source's name)
HL-60 (TB) = test: NCI60 five-dose screen; assay type: cell-based; conditions: Homo sapiens, leukemia; for CC50: read-out: LC50 (the source's name)
U251 = test: NCI60 five-dose screen; assay type: cell-based; conditions: Homo sapiens, U-251, U251, CNS cancer; for CC50: read-out: LC50 (the source's name)
HS 578T = test: NCI60 five-dose screen; assay type: cell-based; conditions: Homo sapiens, breast cancer; for CC50: read-out: LC50 (the source's name)
MALME-3M = test: NCI60 five-dose screen; assay type: cell-based; conditions: Homo sapiens, melanoma; for CC50: read-out: LC50 (the source's name)
CCRF-CEM = test: NCI60 five-dose screen; assay type: cell-based; conditions: Homo sapiens, leukemia; for CC50: read-out: LC50 (the source's name)
SF-268 = test: NCI60 five-dose screen; assay type: cell-based; conditions: Homo sapiens, SF-268, CNS cancer; for CC50: read-out: LC50 (the source's name)
T-47D = test: NCI60 five-dose screen; assay type: cell-based; conditions: Homo sapiens, T47D, breast cancer; for CC50: read-out: LC50 (the source's name)
SK-OV-3 = test: NCI60 five-dose screen; assay type: cell-based; conditions: Homo sapiens, SK-OV-3, ovarian cancer; for CC50: read-out: LC50 (the source's name)
MDA-MB-468 = test: NCI60 five-dose screen; assay type: cell-based; conditions: Homo sapiens, MDA-MB-468, breast cancer; for CC50: read-out: LC50 (the source's name)
NCI-H322M = test: NCI60 five-dose screen; assay type: cell-based; conditions: Homo sapiens, NSC lung cancer; for CC50: read-out: LC50 (the source's name)
NCI/ADR-RES = test: NCI60 five-dose screen; assay type: cell-based, human; conditions: Homo sapiens, ovarian cancer; for CC50: read-out: LC50 (the source's name)
RPMI-8226 = test: NCI60 five-dose screen; assay type: cell-based; conditions: Homo sapiens, RPMI-8226, leukemia; for CC50: read-out: LC50 (the source's name)

`CCc1c[nH]c(/C=N/NC(=O)c2[nH]c3ccc(Br)cc3c2-c2ccccc2)c1` [Derivative 3t, (E)-5-Bromo-N′-((4-ethyl-1H-pyrrol-2-yl)methylene)-3-phenyl-1H-indole-2-carbohydrazide] showed a GI50 (SN12C) of 0.372 µM, a CC50 (SN12C) of 30 µM and a GI50 (OVCAR-5) of 0.337 µM. The CC50 (OVCAR-5) was 37.2 µM, the GI50 (UACC-257) was 1.23 µM and the CC50 (UACC-257) was 41.3 µM. It also gave a GI50 (OVCAR-8) of 0.316 µM, a CC50 (OVCAR-8) of 26 µM and a GI50 (SNB-19) of 0.396 µM. For the same compound, the CC50 (SNB-19) was 41.3 µM, the GI50 (MDA-MB-231/ATCC) was 0.311 µM and the CC50 (MDA-MB-231/ATCC) was 42.4 µM. For the same compound, the IC50 (Human CYP19 (aromatase)) was 4.7 ± 0.5 µM, the GI50 (SF-295) was 0.319 µM and the CC50 (SF-295) was 24.7 µM. For the same compound, the GI50 (MOLT-4) was 0.399 µM, the CC50 (MOLT-4) was 94.2 µM and the GI50 (SK-MEL-28) was 0.839 µM. The CC50 (SK-MEL-28) was 46.6 µM, the GI50 (SW-620) was 0.431 µM and the CC50 (SW-620) was 42.5 µM. The GI50 (UO-31) was 1 µM, the CC50 (UO-31) was 40.7 µM and the GI50 (TK-10) was 2.83 µM. For the same compound, the CC50 (TK-10) was 42.1 µM, the GI50 (HCC-2998) was 0.342 µM and the CC50 (HCC-2998) was 30.4 µM. For the same compound, the GI50 (NCI-H522) was 0.206 µM, the CC50 (NCI-H522) was 29.5 µM and the GI50 (KM12) was 0.325 µM. It also gave a CC50 (KM12) of 34.4 µM, a GI50 (HL-60 (TB)) of 0.237 µM and a CC50 (HL-60 (TB)) of 91.9 µM. For the same compound, the GI50 (U251) was 0.373 µM, the CC50 (U251) was 38.2 µM and the GI50 (HS 578T) was 0.3 µM. For the same compound, the CC50 (HS 578T) was 87.3 µM, the GI50 (MALME-3M) was 1.72 µM and the CC50 (MALME-3M) was 48 µM. The GI50 (CCRF-CEM) was 0.368 µM, the CC50 (CCRF-CEM) was > 100 µM and the GI50 (SF-268) was 0.861 µM. It also gave a CC50 (SF-268) of 51.9 µM, a GI50 (T-47D) of 1.59 µM and a CC50 (T-47D) of 39.3 µM. The GI50 (SK-OV-3) was 0.922 µM, the CC50 (SK-OV-3) was 35.4 µM and the GI50 (MDA-MB-468) was 0.263 µM. For the same compound, the CC50 (MDA-MB-468) was 9.22 µM, the GI50 (NCI-H322M) was 2.31 µM and the CC50 (NCI-H322M) was 49.8 µM. For the same compound, the GI50 (NCI/ADR-RES) was 0.247 µM, the CC50 (NCI/ADR-RES) was 22 µM and the GI50 (RPMI-8226) was 0.343 µM. The CC50 (RPMI-8226) was > 100 µM.

`CCc1cc[nH]c1/C=N/NC(=O)c1[nH]c2ccc(Br)cc2c1-c1ccccc1` [Derivative 3u, (E)-5-Bromo-N′-((3-ethyl-1H-pyrrol-2-yl)methylene)-3-phenyl-1H-indole-2-carbohydrazide] was tested, and the GI50 (SN12C) was 2.26 µM, the CC50 (SN12C) was 34 µM and the GI50 (OVCAR-5) was 6.77 µM. For the same compound, the CC50 (OVCAR-5) was 45.4 µM, the GI50 (UACC-257) was 3.78 µM and the CC50 (UACC-257) was 40.8 µM. It also gave a GI50 (OVCAR-8) of 3.02 µM, a CC50 (OVCAR-8) of 39.8 µM and a GI50 (SNB-19) of 4.5 µM. It also gave a CC50 (SNB-19) of 42.2 µM, a GI50 (MDA-MB-231/ATCC) of 5.02 µM and a CC50 (MDA-MB-231/ATCC) of 44.7 µM. The IC50 (Human CYP19 (aromatase)) was 9.6 ± 1 µM, the GI50 (SF-295) was 2.29 µM and the CC50 (SF-295) was 37.1 µM. It also gave a GI50 (MOLT-4) of 2.37 µM, a CC50 (MOLT-4) of 55.1 µM and a GI50 (SK-MEL-28) of 3.46 µM. For the same compound, the CC50 (SK-MEL-28) was 40.1 µM, the GI50 (SW-620) was 3.82 µM and the CC50 (SW-620) was 43.3 µM. For the same compound, the GI50 (UO-31) was 2.94 µM, the CC50 (UO-31) was 39.7 µM and the GI50 (TK-10) was 5.05 µM. For the same compound, the CC50 (TK-10) was 41.6 µM, the GI50 (HCC-2998) was 4.11 µM and the CC50 (HCC-2998) was 42.4 µM. For the same compound, the GI50 (NCI-H522) was 2.3 µM, the CC50 (NCI-H522) was 34.1 µM and the GI50 (KM12) was 3.17 µM. For the same compound, the CC50 (KM12) was 42.3 µM, the GI50 (HL-60 (TB)) was 2.03 µM and the CC50 (HL-60 (TB)) was 24.3 µM. For the same compound, the GI50 (U251) was 2.15 µM, the CC50 (U251) was 37.8 µM and the GI50 (HS 578T) was 3.6 µM. For the same compound, the CC50 (HS 578T) was 61.8 µM, the GI50 (MALME-3M) was 3.5 µM and the CC50 (MALME-3M) was 40 µM. For the same compound, the GI50 (CCRF-CEM) was 2.35 µM, the CC50 (CCRF-CEM) was 63.8 µM and the GI50 (SF-268) was 2.86 µM. The CC50 (SF-268) was 42.7 µM, the GI50 (T-47D) was 2.17 µM and the CC50 (T-47D) was 41.9 µM. It also gave a GI50 (SK-OV-3) of 2.59 µM, a CC50 (SK-OV-3) of 42.4 µM and a GI50 (MDA-MB-468) of 2.72 µM. The CC50 (MDA-MB-468) was 32.1 µM, the GI50 (NCI-H322M) was 3.93 µM and the CC50 (NCI-H322M) was 43.4 µM. It also gave a GI50 (NCI/ADR-RES) of 2.68 µM, a CC50 (NCI/ADR-RES) of 34.6 µM and a GI50 (RPMI-8226) of 2.04 µM. It also gave a CC50 (RPMI-8226) of 78.6 µM.
